Assay results taken from patent US6506772B1, “Substituted [1,2,4]triazolo[1,5a]pyridine derivatives with activity as adenosine receptor ligands” (Hoffmann-La Roche Inc., priority 2000, dated 2003).
Where two headings read alike, the source gives them in different places.

Columns and labels:
[1] = biological target: T1, human adenosine A2A receptor (Homo sapiens, UniProt P29274); experiment: Human adenosine A2A receptor [3H]-SCH-58261 binding assay
T1 construct: expressed in transfected cells; host or cells: CHO cells, Semliki Forest virus expression system; membrane preparation

HA1 adenosine receptor = biological target: T2, HA1 adenosine receptor (Homo sapiens, UniProt P30542); experiment: Human adenosine A1 receptor affinity (Ki hA1); type: binding
T2 sequence (P30542 1-326): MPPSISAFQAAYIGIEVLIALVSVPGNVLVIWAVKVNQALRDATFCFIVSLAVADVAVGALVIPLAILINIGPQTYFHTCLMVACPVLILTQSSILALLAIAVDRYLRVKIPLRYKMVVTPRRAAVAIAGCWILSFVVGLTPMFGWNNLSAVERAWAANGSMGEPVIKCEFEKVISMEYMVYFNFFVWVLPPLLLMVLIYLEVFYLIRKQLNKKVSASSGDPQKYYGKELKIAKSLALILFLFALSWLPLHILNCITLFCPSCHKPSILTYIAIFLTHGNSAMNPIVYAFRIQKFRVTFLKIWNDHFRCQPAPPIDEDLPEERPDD

[2] = affinity to human adenosine A2A receptor, read-out: Ki HA2A
[3] = calculated ratio of the affinity to the HA1 receptor to the HA2a receptor
[4] = affinity to human adenosine A1 receptor
[5] = recombinant human A2A in CHO cell membranes, [3H]-SCH-58261, Cheng-Prussoff, read-out: Ki hA2A

T1 sequence (P29274 whole entry): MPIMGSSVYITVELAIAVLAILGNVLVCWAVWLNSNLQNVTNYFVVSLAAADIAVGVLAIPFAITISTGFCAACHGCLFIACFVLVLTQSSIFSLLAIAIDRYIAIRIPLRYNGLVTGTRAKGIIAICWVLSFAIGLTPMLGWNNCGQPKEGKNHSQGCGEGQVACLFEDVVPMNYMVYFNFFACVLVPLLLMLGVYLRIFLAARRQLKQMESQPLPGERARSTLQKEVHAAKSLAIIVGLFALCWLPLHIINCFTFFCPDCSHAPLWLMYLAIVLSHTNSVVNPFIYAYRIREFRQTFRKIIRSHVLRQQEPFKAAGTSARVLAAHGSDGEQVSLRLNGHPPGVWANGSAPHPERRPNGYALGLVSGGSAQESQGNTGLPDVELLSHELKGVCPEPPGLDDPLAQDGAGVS

Row | SMILES | Ki [1, 2] [nM] | selectivity (A1/A2a) [1, 3] | Ki (HA1 adenosine receptor; [4]) [nM] | selectivity (A1/A2a) ([1]; ratio KiHA1 divided by KiHA2A) | Ki [1, 5] [nM] | Ki (HA1 adenosine receptor) [nM]
1 | Nc1cc(C(=O)NCc2ccccc2Cl)cc2nc(-c3cc(Br)co3)nn12 [Example 174, 5-Amino-2-(4-bromo-furan-2-yl)-[1,2,4]triazolo[1,5-a]pyridine-7-carboxylic acid 2-chloro-benzylamide] | 11.1 | 1.6 | 17.5 | – | – | –
2 | Cc1ccc(-c2nc3cc(C(=O)NC(C)c4ccccc4)cc(N)n3n2)o1 (stereo not drawn) [Example 211, 5-Amino-2-(5-methyl-furan-2-yl)-[1,2,4]triazolo[1,5-a]pyridine-7-carboxylic acid (1-phenyl-ethyl)-amide] | 57.3 | 5.2 | 298 | – | – | –
3 | Cc1ccc(-c2nc3cc(C(=O)N4CCCCC4)cc(N)n3n2)s1 [Example 114, [5-Amino-2-(5-methyl-thiophen-2-yl)-[1,2,4]triazolo[1,5-a]pyridin-7-yl]-piperidin-1-yl-methanone] | 28.3 | 27.3 | 772 | – | – | –
4 | Nc1cc(C(=O)NCc2ccc(F)cc2)cc2nc(-c3nccs3)nn12 [Example 206, 5-Amino-2-thiazol-2-yl-[1,2,4]triazolo[1,5-a]pyridine-7-carboxylic acid 4-fluoro-benzylamide] | 126 | 5.2 | 657 | – | – | –
5 | CCCCN(Cc1ccccc1)C(=O)c1cc(N)n2nc(-c3ccc[nH]3)nc2c1 [Example 84, 5-Amino-2-(1H-pyrrol-2-yl)-[1,2,4]triazolo[1,5-a]pyridine-7-carboxylic acid benzyl-butyl-amide] | 294 | 16.9 | 4960 | – | – | –
6 | COc1ccc(-c2nc3cc(C(=O)N(Cc4ccccc4)C(C)C)cc(N)n3n2)s1 [Example 55, 5-Amino-2-(5-methoxy-thiophen-2-yl)-[1,2,4]triazolo[1,5-a]pyridine-7-carboxylic acid benzyl-isopropyl-amide] | 28.3 | 2.7 | 76.4 | – | – | –
7 | Nc1cc(C(=O)N2CCCCC2)cc2nc(-c3ccccc3)nn12 [Example 151, (5-Amino-2-phenyl-[1,2,4]triazolo[1,5-a]pyridin-7-yl)-piperidin-1-yl-methanone] | 85.5 | 10.8 | 928 | – | – | –
8 | CC(NC(=O)c1cc(N)n2nc(-c3ccccn3)nc2c1)c1ccccc1 (stereo not drawn) [Example 44, 5-Amino-2-pyridin-2-yl-[1,2,4]triazolo[1,5-a]pyridine-7-carboxylic acid (1-phenyl-ethyl)-amide] | 44.5 | 2.7 | 120 | – | – | –
9 | CC(C)N(C(=O)c1cc(N)n2nc(-c3nccs3)nc2c1)C(C)C [Example 122, 5-Amino-2-thiazol-2-yl-[1,2,4]triazolo[1,5-a]pyridine-7-carboxylic acid diisopropylamide] | 317 | 10.5 | 3320 | – | – | –
10 | CCCCNC(=O)c1cc(N)n2nc(-c3nccs3)nc2c1 [Example 119, 5-Amino-2-thiazol-2-yl-[1,2,4]triazolo[1,5-a]pyridine-7-carboxylic acid butylamide] | 17.1 | 25.0 | 429 | – | – | –
11 | Nc1cc(C(=O)N2CCCCC2)cc2nc(-c3cc(Br)co3)nn12 [Example 171, [5-Amino-2-(4-bromo-furan-2-yl)-[1,2,4]triazolo[1,5-a]pyridin-7-yl]-piperidin-1-yl-methanone] | 64.9 | 4.3 | 276 | – | – | –
12 | Nc1cc(C(=O)N2CCCC2)cc2nc(-c3cc(Br)co3)nn12 [Example 170, [5-Amino-2-(4-bromo-furan-2-yl)-[1,2,4]triazolo[1,5-a]pyridin-7-yl]-pyrrolidin-1-yl-methanone] | 33.8 | 4.5 | 152 | – | – | –
13 | Nc1cc(C(=O)N(CCc2ccccc2)Cc2ccccc2)cc2nc(-c3ccc[nH]3)nn12 [Example 96, 5-Amino-2-(1H-pyrrol-2-yl)-[1,2,4]triazolo[1,5-a]pyridine-7-carboxylic acid benzyl-phenethyl-amide] | 217 | 3.4 | 729 | – | – | –
14 | CCCCNC(=O)c1cc(N)n2nc(-c3ccccc3)nc2c1 [Example 145, 5-Amino-2-phenyl-[1,2,4]triazolo[1,5-a]pyridine-7-carboxylic acid butylamide] | 26 | 4.1 | 106 | – | – | –
15 | CCN(CC)C(=O)c1cc(N)n2nc(-c3ccco3)nc2c1 [Example 105, 5-Amino-2-furan-2-yl-[1,2,4]triazolo[1,5-a]pyridine-7-carboxylic acid diethylamide] | 50.9 | 46.9 | 2380 | – | – | –

Continued, values first:

Row | Ki [1, 2] [nM] | selectivity (A1/A2a) [1, 3] | Ki (HA1 adenosine receptor; [4]) [nM] | selectivity (A1/A2a) ([1]; ratio KiHA1 divided by KiHA2A) | Ki [1, 5] [nM] | Ki (HA1 adenosine receptor) [nM] | SMILES
16 | 87.5 | 30.9 | 2700 | – | – | – | CCCN(CCC)C(=O)c1cc(N)n2nc(-c3nccs3)nc2c1 [Example 331, 5-Amino-2-thiazol-2-yl-[1,2,4]triazolo[1,5-a]pyridine-7-carboxylic acid dipropylamide]
17 | – | – | – | 24.6 | 33.8 | 832 | CC1CC(C)CN(C(=O)c2cc(N)n3nc(-c4ccccn4)nc3c2)C1 (stereo not drawn) [Example 423, (5-Amino-2-pyridin-2-yl-[1,2,4]triazolo[1,5-a]pyridin-7-yl)-(3,5-dimethyl-piperidin-1-yl)-methanone]
18 | 2 | 31.1 | 62.1 | – | – | – | CCN(C(=O)c1cc(N)n2nc(-c3ccc(Br)o3)nc2c1)C1CCCCC1 [Example 345, 5-Amino-2-(5-bromo-furan-2-yl)-[1,2,4]triazolo[1,5-a]pyridine-7-carboxylic acid cyclohexyl-ethyl-amide]
19 | 82.7 | 7.4 | 614 | – | – | – | CC1CCCC(C)N1C(=O)c1cc(N)n2nc(-c3nccs3)nc2c1 (stereo not drawn) [Example 320]
20 | 7.2 | 30.6 | 221 | – | – | – | CC1CCC(C)N1C(=O)c1cc(N)n2nc(-c3ccc(Cl)o3)nc2c1 (stereo not drawn) [Example 258, [5-Amino-2-(5-chloro-furan-2-yl)-[1,2,4]triazolo[1,5-a]pyridin-7-yl]-(2,5-dimethyl-pyrrolidin-1-yl)-methanone]
21 | 1.3 | 28.5 | 37 | – | – | – | Nc1cc(C(=O)N2CCCCCCC2)cc2nc(-c3ccc(Br)o3)nn12 [Example 339, [5-Amino-2-(5-bromo-furan-2-yl)-[1,2,4]triazolo[1,5-a]pyridin-7-yl]-azocan-1-yl-methanone]
22 | 116 | 27.0 | 3130 | – | – | – | C=CCN(C)C(=O)c1cc(N)n2nc(-c3nccs3)nc2c1 [Example 283, 5-Amino-2-thiazol-2-yl-[1,2,4]triazolo[1,5-a]pyridine-7-carboxylic acid allyl-methyl-amide]
23 | 3.9 | 64.4 | 251 | – | – | – | CC1C=CC(C)N1C(=O)c1cc(N)n2nc(-c3ccc(Br)o3)nc2c1 (stereo not drawn) [Example 273, [5-Amino-2-(5-bromo-furan-2-yl)-[1,2,4]triazolo[1,5-a]pyridin-7-yl]-(2,5-dimethyl-2,5-dihydro-pyrrol-1-yl)-methanone]
24 | – | – | – | 3.6 | 75.4 | 274 | CC1C=CC(C)N1C(=O)c1cc(N)n2nc(-c3ccccn3)nc2c1 (stereo not drawn) [Example 415, (5-Amino-2-pyridin-2-yl-[1,2,4]triazolo[1,5-a]pyridin-7-yl)-(2,5-dimethyl-2,5-dihydro-pyrrol-1-yl)-methanone]
25 | 25.8 | 22.3 | 577 | – | – | – | Nc1cc(C(=O)N(CC(F)(F)F)CC(F)(F)F)cc2nc(-c3ccc(Br)o3)nn12 [Example 311, 5-Amino-2-(5-bromo-furan-2-yl)-[1,2,4]triazolo[1,5-a]pyridine-7-carboxylic acid bis-(2,2,2-trifluoro-ethyl)-amide]
26 | 2.2 | 42.7 | 94 | – | – | – | CCCN(CC1CC1)C(=O)c1cc(N)n2nc(-c3ccc(Br)o3)nc2c1 [Example 298, 5-Amino-2-(5-bromo-furan-2-yl)-[1,2,4]triazolo[1,5-a]pyridine-7-carboxylic acid cyclopropylmethyl-propyl-amide]
27 | 1.2 | 14.8 | 17.8 | – | – | – | Nc1cc(C(=O)N(Cc2ccccc2)Cc2ccccc2)cc2nc(-c3ccc(Br)o3)nn12 [Example 313, 5-Amino-2-(5-bromo-furan-2-yl)-[1,2,4]triazolo[1,5-a]pyridine-7-carboxylic acid dibenzylamide]
28 | 87 | 14.3 | 1240 | – | – | – | CCCN(CC1CC1)C(=O)c1cc(N)n2nc(-c3nccs3)nc2c1 [Example 319, 5-Amino-2-thiazol-2-yl-[1,2,4]triazolo[1,5-a]pyridine-7-carboxylic acid cyclopropylmethyl-propyl-amide]
29 | 124 | 8.5 | 1060 | – | – | – | CN(C)CCN(C)C(=O)c1cc(N)n2nc(-c3ccc(Br)o3)nc2c1 [Example 279, 5-Amino-2-(5-bromo-furan-2-yl)-[1,2,4]triazolo[1,5-a]pyridine-7-carboxylic acid (2-dimethylamino-ethyl)-methyl-amide]
